# Measured values: patent US20080242729A1, “Rxr Antagonists in the Treatment of Inflammatory Diseases” (priority 2004, published 2008)
# Legend:
# human skin [1] = assay: Clinical pilot trial: preventive and therapeutic effect on 9-cis RA induced human skin inflammation; format: in vivo; conditions: Therapy: 9-cis RA 0.3% day 1 to day 14, compound A 1% from day 15
# Description: In this pilot clinical trial on one healthy volunteer, the substance 9-cis RA and compound A are administered epicutaneously. The inflammation-inducing agent 9-cis RA is used in a concentration of 0.3%. The RXR antagonist compound A is applied in a concentration of 1%. The compounds are solved in ethanol/propylene glycol (1:1) and administered twice daily. The site of application is the abdominal skin, with various areas of 3×3=9 cm^2. Volume per application is 0.1 ml.
# The following three clinical settings at different sites are chosen:
# 1. Induction of Skin Inflammation by 9-cis RA • 9-cis RA is administered as a 0.3% solution twice daily from day 1 to day 14. The vehicle is administered from day 15 to disappearances of skin inflammation.
# 2. Prevention of 9-cis RA-Induced Skin Inflammation by RXR Antagonist Compound A • 9-cis RA solution of 0.3% is administered twice daily from day 1 to day 14, each time followed subsequently by application of compound A as a 1% solution.
# 3. Therapy of 9-Cis RA-Induced Skin Inflammation by RXR Antagonist Compound A • 9-cis RA solution of 0.3% is administered twice daily from day 1 to day 14. Compound A as a 1% solution is administered from day 15 until disappearance of skin inflammation.
# The signs and symptoms of skin inflammation are recorded on a 0-4 scale, as described in example 16. […]
# normal skin of mice = assay: Effect on normal, non-inflamed skin of mice; format: in vivo, mice (C57BL/6); conditions: mouse ears
# Description: The effect of the RXR antagonist compound A on normal skin of mice is investigated. The ears of C57BL/6 mice are treated epicutaneously (topically) for 4 consecutive days with compound A in a concentration of 0.05% and 2.5% in acetone/ethanol (1:1, v/v). Comparison with vehicle control. Daily observation of skin reactions, in particular inflammation, erythema, desquamation, and edema follows. Myeloperoxidase (MPO) activity is determined. The activity of MPO is considered the most sensitive criterium for the assessment of inflammation of the skin (see above, Examples 1 and 2).
# human skin [2] = assay: Clinical phase I trial: skin inflammation induced by Candidin or UV-B irradiation in healthy volunteers; format: in vivo; conditions: Candidin intradermal or UV-B induced, topical treatment days 1-3, 4 volunteers; compound A 1% lotion, comparators as creams
# Description: Four healthy volunteers participate. Inclusion criteria are: Age above 18 years, male or female. They are informed, with written letter of consent. Exclusion criteria are: Preexistant dermatological diseases, known allergy to test agents.
# Inflammation inducing agents: Candidin is administered intradermally (see also D. Poffet, Comparaison entre le pouvoir vaso-constricteur d'un corticoide topique et l'inhibition de la dermite à la candidine après intradermoréaction (IDR). Thèse, Université de Genève, 1984). UV-B rays are administered by a UV-B lamp.
# Inflammation is measured quantitatively. The area of the inflamed skin is measured in cm^2. The thickness of the skin is monitored by Ultrasound at 20 MHz. Erythema is measured by calorimetric determination employing a Minolta CR 20. […]
# All determinations are recorded on a scale from 0 to 4: • 0=no reduction • 1=slight reduction (10 to 20%) • 2=moderate reduction (21 to 40%) • 3=marked reduction (41 to 70%) • 4=very marked reduction (71 to 100%) • Compared to vehicle control.
# human skin [3] = assay: Clinical pilot trial: inflammation potential on healthy, non-inflamed human skin (epicutaneous); format: in vivo
# Text: In a clinical pilot trial on one healthy volunteer compound A is applied epicutaneously in a concentration of 1% for its inflammation potential compared to that of the strong inflammation inducing agent 9-cis RA in concentrations of 0.1%, 0.3% and 1%.
# The compounds are solved or suspended in ethanol/propylene glycol (1:1). They are applied epicutaneously twice daily, 7 days a week, for two consecutive weeks. The site of application is an area of 3×3=9 cm^2 on the abdominal skin. The volume is 0.1 ml per application.
# The following signs and symptoms of skin inflammation are recorded: Erythema, desquamation (scaling), pruritus, burning, pain, exsudation, edema, ulceration. They are classified on a scale of:
# Treatment period lasts from day 1 to 14, the post-treatment observation period from day 15 to day 28
# [4] = tested on: synovial fibroblasts / human cartilage; assay: In vitro cartilage degradation by synovial fibroblasts from a RA patient, release of sGAG; format: cell-based
# Description: (§1) The effect of RXR antagonists on the activity of synovial fibroblasts, dependent on their state of activation, i.e. modified by a concomitant stimulation by the inflammatory cytokine Interleukin-1β (IL-1β), is determined. Furthermore, it is determined whether this is accompanied by a modulation in the accumulation of the mRNA encoding catabolic enzyme matrix metalloproteinase-1 (MMP-1), responsible for degradation of human cartilage and consequently joint destruction in man. Adherent synovial fluid cells taken from a patient with RA are used after 5 passages in an in vitro assay for cartilage destruction. The cells incubated in flasks coated with 0.1% (0.1 g/100 ml) human cartilage powder are fixed using Matrigel® (BD Biosciences, Becton, Dickinson & Co., Boston, Miss., USA). The release of sulphated glycosaminoglycan (sGAG) into the culture medium is monitored by a commercial calorimetric test according to a method described by S. Björnsson, see Anal. Biochem. 256, 229-237 (1998) using an alcian blue dot plot analysis, and the accumulation of mRNA encoding MMP-1 is quantified by real time PCR (TaqMan® (Roche Diagnostics, Basle, Switzerland)).
# The retinoid agonists all-trans retinoic acid and 9-cis retinoic acid, both physiological metabolites of vitamin A, as well as the RXR antagonist compound A, diluted first in ethanol, and then diluted with vehicle or medium to the desired dose/concentration are tested in a time course (0-35 days for the in vitro assay, 0-48 hours for MMP-1 mRNA, see tables 7, 8 and 10) and dose-dependent (10^−7 to 10^−9 M, see tables 5, 6 and 9). This is conducted in the presence or absence of IL-1β (100 pg/ml).
# MMP-1 mRNA = MMP-1 mRNA accumulation in synovial fibroblasts (real time PCR); format: cell-based, human
# Description: as §1, with “Switzerland)). […] This is conducted in the presence or absence of IL-1β (100 pg/ml).” for “Switzerland)).”
structure (smiles),measurement,setting,value
"CCCCOc1c(\C(C)=C/C=C/C(C)=C/C(=O)O)cc(C(C)(C)C)cc1C(C)(C)C [compound A, (2E,4E,6Z)-7-[2-butoxy-3,5-bis(1,1-dimethylethyl)-phenyl]-3-methyl-2,4,6-octatrienoic acid]",reduction of all parameters in comparison to the values of 9-cis RA,human skin [1],≥ 50%
same,"MPO activity compared to the vehicle control, normal skin","normal skin of mice; compound A 0.05%, epicutaneous, 4 days",no significant change
same,"MPO activity in % of that of the vehicle control, normal skin","normal skin of mice; compound A 2.5%, epicutaneous, 4 days",57%
same,clinical signs or symptoms of a skin inflammation on normal skin,"normal skin of mice; epicutaneous 0.05% and 2.5% in acetone/ethanol, 4 consecutive days",does not induce clinical signs or symptoms of a skin inflammation
same,"reduction of the inflammatory reaction compared to vehicle control (skin thickness, erythema, area of inflamed skin)",human skin [2],very marked
same,"skin inflammation, objective or subjective symptoms","human skin [3]; 1% epicutaneous twice daily day 1-14, observation to day 28",no skin inflammation
"CC1=C(/C=C/C(C)=C\C=C\C(C)=C\C(=O)O)C(C)(C)CCC1 [9-cis RA, 9-cis retinoic acid]",sGAG in μg/ml (release of sGAG/14 days),"[4]; 10^−7 M, absence of IL-1β",189 µg/mL
same,sGAG in μg/ml (release of sGAG/14 days),"[4]; 10^−7 M, presence of 100 pg/ml IL-1β",221 µg/mL
same,sGAG in μg/ml (release of sGAG/14 days),"[4]; 10^−8 M, absence of IL-1β",107 µg/mL
same,Cumulative μg/ml sGAG/14 days,"[4]; 10^−8 M, absence of IL-1β, day 7",44 µg/mL
same,Cumulative μg/ml sGAG/14 days,"[4]; 10^−8 M, absence of IL-1β, day 14",107 µg/mL
same,Cumulative μg/ml sGAG/14 days,"[4]; 10^−8 M, absence of IL-1β, day 21",206 µg/mL
same,Cumulative μg/ml sGAG/14 days,"[4]; 10^−8 M, absence of IL-1β, day 28",253 µg/mL
same,Cumulative μg/ml sGAG/14 days,"[4]; 10^−8 M, absence of IL-1β, day 35",292 µg/mL
same,sGAG in μg/ml (release of sGAG/14 days),"[4]; 10^−8 M, presence of 100 pg/ml IL-1β",189 µg/mL
same,Cumulative μg/ml sGAG/14 days,"[4]; 10^−8 M, presence of 100 pg/ml IL-1β, day 7",68 µg/mL
same,Cumulative μg/ml sGAG/14 days,"[4]; 10^−8 M, presence of 100 pg/ml IL-1β, day 14",189 µg/mL
same,Cumulative μg/ml sGAG/14 days,"[4]; 10^−8 M, presence of 100 pg/ml IL-1β, day 21",330 µg/mL
same,Cumulative μg/ml sGAG/14 days,"[4]; 10^−8 M, presence of 100 pg/ml IL-1β, day 28",407 µg/mL
same,Cumulative μg/ml sGAG/14 days,"[4]; 10^−8 M, presence of 100 pg/ml IL-1β, day 35",441 µg/mL
same,sGAG in μg/ml (release of sGAG/14 days),"[4]; 10^−9 M, absence of IL-1β",64 µg/mL
same,sGAG in μg/ml (release of sGAG/14 days),"[4]; 10^−9 M, presence of 100 pg/ml IL-1β",204 µg/mL
same,MMP-1 mRNA in relative units (fold increase of baseline value),"MMP-1 mRNA; 10^−7 M, after 24 hours",2.60 relative units
same,MMP-1 mRNA in relative units (fold increase of baseline value),"MMP-1 mRNA; 10^−8 M, 0 hours",1 relative units
same,MMP-1 mRNA in relative units (fold increase of baseline value),"MMP-1 mRNA; 10^−8 M, 2 hours",0.98 relative units
same,MMP-1 mRNA in relative units (fold increase of baseline value),"MMP-1 mRNA; 10^−8 M, 6 hours",1.31 relative units
same,MMP-1 mRNA in relative units (fold increase of baseline value),"MMP-1 mRNA; 10^−8 M, 12 hours",3.39 relative units
same,MMP-1 mRNA in relative units (fold increase of baseline value),"MMP-1 mRNA; 10^−8 M, 24 hours",3.79 relative units
same,MMP-1 mRNA in relative units (fold increase of baseline value),"MMP-1 mRNA; 10^−8 M, 48 hours",1.47 relative units
same,MMP-1 mRNA in relative units (fold increase of baseline value),"MMP-1 mRNA; 10^−8 M, after 24 hours",3.39 relative units
same,MMP-1 mRNA in relative units (fold increase of baseline value),"MMP-1 mRNA; 10^−9 M, after 24 hours",1.54 relative units
same,time after discontinuation of treatment until inflammation decreases to 0,"human skin [3]; 0.1% to 1.0%, depending on the concentration (days 18 to 22)",4 to 8 days
same,signs or symptoms of skin inflammation,"human skin [3]; 0.1%, 0.3% and 1.0% epicutaneous twice daily, around the tenth and eleventh day","slight erythema, desquamation and pruritus"
same,signs or symptoms of skin inflammation,"human skin [3]; 0.1%, 0.3% and 1.0% epicutaneous twice daily, first 9 days after start of treatment, one volunteer",no signs or symptoms of skin inflammation
same,signs or symptoms of skin inflammation,"human skin [3]; 0.1 and 0.3% epicutaneous twice daily, days 12, 13 and 14",moderate inflammation
same,signs or symptoms of skin inflammation,"human skin [3]; 1.0% epicutaneous twice daily, days 12, 13 and 14",marked inflammation
